Counter-ions that a name gives are not always drawn.
Tests used:
[1] = tested on: lymphocytic leukemia P388; assay: Lymphocytic Leukemia P388 Test; format: in vivo, DBA/2 mice
Method: Lymphocytic Leukemia P388 Test
The animals used were DBA/2 mice all of one sex, weighing a minimum of 17 g and all within a 3 g weight range. There were 5 or 6 animals per test group. The tumor transplant was by intraperitoneal injection of 0.1 ml of dilute ascitic fluid containing 10^6 cells of lymphocytic leukemia P388. The test compounds were administered intraperitoneally on days 1, 5 and 9 (relative to tumor inoculation) at various doses. The animals were weighed and survivors were recorded on a regular basis for 30 days. The median survival time and the ratio of survival time for treated (T)/control (C) animals were calculated. The positive control compound was 1,4-dihydroxy-5,8-bis--[ [2-(2-hydroxyethylamino)ethyl ]amino]anthraquinone, dihydrochloride (U.S. Patent 4,197,249) given at the indicated doses by injection.

melanotic melanoma B16 = assay: Melanotic Melanoma B16 Test; format: in vivo, C57BC/6 mice
Method: The animals used were C57BC/6 mice, all of the same sex, weighing a minimum of 17 g and all within a 3 g weight range. There were normally 10 animals per test group. A 1.0 g portion of melanotic melanoma B16 tumor was homogenized in 10 ml of cold balanced salt solution and a 0.5 ml aliquot of the homogenate was implanted intraperitoneally into each of the test mice. The test compounds were administered intraperitoneally on days one through nine (relative to tumor inoculation) at various doses. The animals were weighed and survivors recorded on a regular basis for 60 days. The median survival time and the ratio of survival time for treated (T)/control (C) animals were calculated. The positive control compound was 1,4-dihydroxy-5,8-bis[[2-(2-hydroxyethylamino)-ethyl]amino]anthraquinone, dihydrochloride (U.S. Patent 4,197,249) given at the indicated doses by injection.

[2] = Dose 3 mg/kg intraperitoneally on days 1, 5 and 9
[3] = Dose 12 mg/kg intraperitoneally on days 1, 5 and 9
[4] = Dose 50 mg/kg intraperitoneally on days 1, 5 and 9
[5] = Dose 200 mg/kg intraperitoneally on days 1, 5 and 9
[6] = Dose 0.8 mg/kg intraperitoneally on days one through nine
[7] = Dose 3 mg/kg intraperitoneally on days one through nine
[8] = Dose 12 mg/kg intraperitoneally on days one through nine
[9] = Dose 50 mg/kg intraperitoneally on days one through nine
[10] = Dose 3 mg/kg intraperitoneally on days 1, 5 and 9, dihydrochloride, 3 mg/kg
[11] = Dose 12 mg/kg intraperitoneally on days 1, 5 and 9, dihydrochloride, 12 mg/kg
[12] = Dose 50 mg/kg intraperitoneally on days 1, 5 and 9, dihydrochloride, 50 mg/kg
[13] = Dose 3 mg/kg intraperitoneally on days 1, 5 and 9, 3 mg/kg
[14] = Dose 12 mg/kg intraperitoneally on days 1, 5 and 9, 12 mg/kg
[15] = Dose 50 mg/kg intraperitoneally on days 1, 5 and 9, 50 mg/kg
[16] = Dose 25 mg/kg intraperitoneally on days one through nine
[17] = Dose 100 mg/kg intraperitoneally on days one through nine

COC(=O)C(=O)NCCNc1ccc(NCCNC(=O)C(=O)OC)c2c1C(=O)c1c(O)ccc(O)c1C2=O [2,2[(9-10-Dihydro-5,8-dihydroxy-9,10-dioxo-1,4-anthracenediyl)bis(imino-2,1-ethanediylimino)]-bis[2-oxoacetic acid]dimethyl ester]
Median Survival [1, 2]: 16 days
T/C x 100 (%) [1, 2]: 145%
Median Survival [1, 3]: 19.5 days
T/C x 100 (%) [1, 3]: 177%
Median Survival [1, 4]: 20.5 days
T/C x 100 (%) [1, 4]: 186%
Median Survival [1, 5]: 23 days
T/C x 100 (%) [1, 5]: 209%
Median Survival (melanotic melanoma B16; [6]): 23.5 days
T/C x 100 (%) (melanotic melanoma B16; [6]): 155%
Median Survival (melanotic melanoma B16; [7]): 26.5 days
T/C x 100 (%) (melanotic melanoma B16; [7]): 129%
Median Survival (melanotic melanoma B16; [8]): 31.5 days
T/C x 100 (%) (melanotic melanoma B16; [8]): 154%
Median Survival (melanotic melanoma B16; [9]): >60 days
T/C x 100 (%) (melanotic melanoma B16; [9]): >293%

CN(C)CCCNC(=S)N(CCO)CCNc1ccc(NCCN(CCO)C(=S)NCCCN(C)C)c2c1C(=O)c1c(O)ccc(O)c1C2=O [N,N"-[(9,10-Dihydro-5,8-dihydroxy-9,10-dioxo-1,4-anthracenediyl)bis(imino-2,1-ethanediyl)]bis[N'-[3-(dimethylamino)propyl]-N-(2-hydroxyethyl)]thiourea, dihydrochloride]
Median Survival [1, 10]: 15 days
T/C x 100 (%) [1, 10]: 136%
Median Survival [1, 11]: 19.5 days
T/C x 100 (%) [1, 11]: 177%
Median Survival [1, 12]: 22.5 days
T/C x 100 (%) [1, 12]: 205%
Median Survival (melanotic melanoma B16; [6]): 24.5 days
T/C x 100 (%) (melanotic melanoma B16; [6]): 114%
Median Survival (melanotic melanoma B16; [7]): 33.5 days
T/C x 100 (%) (melanotic melanoma B16; [7]): 156%
Median Survival (melanotic melanoma B16; [8]): >60 days
T/C x 100 (%) (melanotic melanoma B16; [8]): >279%

CN(C)CCCNC(=S)N(CCO)CCNc1ccc(NCCN(CCO)C(=S)NCCCN(C)C)c2c1C(=O)c1c(O)ccc(O)c1C2=O [N,N"-[(9,10-Dihydro-5,8-dihydroxy-9,10-dioxo-1,4-anthracenediyl)bis(imino-2,1-ethanediyl)]bis[N'-[3-(dimethylamino)propyl]-N-(2-hydroxyethyl)]thiourea]
Median Survival [1, 13]: 13 days
T/C x 100 (%) [1, 13]: 124%
Median Survival [1, 14]: 13.5 days
T/C x 100 (%) [1, 14]: 129%
Median Survival [1, 15]: 19.5 days
T/C x 100 (%) [1, 15]: 186%
Median Survival [1, 5]: 23 days
T/C x 100 (%) [1, 5]: 219%
Median Survival (melanotic melanoma B16; [16]): 27.5 days
T/C x 100 (%) (melanotic melanoma B16; [16]): 146%
Median Survival (melanotic melanoma B16; [17]): 42 days
T/C x 100 (%) (melanotic melanoma B16; [17]): 222%

— patent EP0182135A2, “Novel bis-(substituted amino) anthraquinones” (AMERICAN CYANAMID COMPANY, priority 1984, dated 1986)
